Measured values published in patent EP3549947B1, “POLYRGD PEPTIDES OBTAINED BY CHEMICAL AND BIOTECHNOLOGY METHODS WITH INJURY REDUCING AND/OR NEUROPROTECTIVE EFFECTS AND A KIT FOR THEIR ACTIVITY EVALUATION” (Uniwersytet Gdanski, priority 2018, dated 2019).
Entries after “also recorded” stand apart in the source; their conditions may differ.

Legend:
primary neural cells = assay: Multifactorial in vitro model of neurological injury (six injury factors), CellTiterBlue viability; type: cell-based, Wistar rat; conditions: 1-hour injury factor (glucose deprivation, acidosis pH 6.35 + 200 mM sodium lactate, 10 mM sodium azide, 400 µM glutamic acid, 800 µM NMDA or 800 µM kainic acid), then 20 hour incubation with 100 µM peptide (RGD10: 1 µg/ml)
Procedure: (§1) Primary neural cortical cultures were obtained from Wistar rat E18.5 embryos. To this end, pregnant rat females were anesthetized and euthanized in a CO2 chamber. In some cases, euthanasia was performed by isoflurane. The cortex tissue was excised from the isolated embryos and washed with HBSS buffer, supplemented with a mixture of penicillin and streptomycin, and HEPES. Afterwards, the cortex tissue was trypsinized for 10 minutes at 37 °C and homogenized mechanically in order to disintegrate the tissue to the form of a cell suspension. The cells were the centrifuged at 300 rcf for 4 minutes, resuspended once more in HBSS and quantified in a Bürker chamber in order to obtain a cell suspension of proper density. […]
(§2) A subject of the invention constitutes a diagnostic methodology for measuring the neuroprotective activity of peptides in a model of several factors co-occurring during any neurological injury. […] These injury conditions were optimized so that the strength of each injury factor causes a 30-40% decrease in response in a CellTiterBlue-based evaluation (a CTB fluorophore in a modified biochemical assay of the MTT type) of cellular viability, relying on quantitative analysis of mitochondrial metabolic functions. […] The fluorescence intensity of the CTB agent is measured spectrofluorimetically (560ex/590em) and is proportional to the number of living cells. […]

[1] = test system: primary neural cortical cultures; assay: Viability assay (CellTiterBlue) of primary neural cultures exposed to polyRGD peptides; type: cell-based, Wistar rat; conditions: reference peptide at 50 µM, 20 hour exposure
Procedure: as §1, §2

Row | Compound | injury-reducing and/or neuroprotective activity (neural cell viability) (primary neural cells) | injury-reducing and/or neuroprotective activity (neural cell viability) (primary neural cells; listed as RGD 1) | cytotoxic effects (viability of neural culture) [1]
1 | N=C(N)NCCC[C@H](N)C(=O)NCC(=O)N[C@@H](CC(=O)O)C(N)=O [RGD1, H2N-RGD-amide] | significant increase in neural cell viability with regard to all injury factors; also recorded: significant injury-reducing and/or neuroprotective efficacy with respect to all six injury factors | broadest spectrum of activity | 
2 | Tat(49-57)NH2 [TAT peptide] |  |  | None of the analyzed peptides displayed significant cytotoxic effects in the assessed concentration ranges, as well as a reference factor
